# Results reported in ChEMBL document CHEMBL1128632, “The discovery of a series of new non-indole 5HT1D agonists” (Bioorg Med Chem Lett, 1995).
# Columns and labels:
# Canis familiaris = organism: Canis familiaris; test: Effective dose required to induce constriction of dog saphenous vein segments; type: functional; conditions: Canis lupus familiaris, read-out: ED50 (the source's name)
# [1] = target: T1, 5-hydroxytryptamine receptor 1A (Homo sapiens, UniProt P08908); test: Ability to bind to 5-hydroxytryptamine 1A receptor from cloned human expressed in Ha7 cells; type: cell-based
# T1 sequence (P08908 whole entry): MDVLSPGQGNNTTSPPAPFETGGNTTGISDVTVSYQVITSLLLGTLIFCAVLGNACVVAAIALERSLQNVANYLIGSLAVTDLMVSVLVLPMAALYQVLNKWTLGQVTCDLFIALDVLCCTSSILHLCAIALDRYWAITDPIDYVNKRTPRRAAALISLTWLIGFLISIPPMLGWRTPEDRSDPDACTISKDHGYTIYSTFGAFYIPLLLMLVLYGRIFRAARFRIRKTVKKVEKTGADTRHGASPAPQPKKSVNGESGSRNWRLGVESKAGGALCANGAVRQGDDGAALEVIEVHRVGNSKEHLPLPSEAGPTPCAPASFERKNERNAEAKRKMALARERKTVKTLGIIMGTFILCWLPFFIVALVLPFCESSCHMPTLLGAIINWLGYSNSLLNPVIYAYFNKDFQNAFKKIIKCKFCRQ
# [2] = target: T1, 5-hydroxytryptamine receptor 1A; test: Ability to bind to 5-hydroxytryptamine 1A receptor subtype from cloned human expressed in Ha7 cells; type: cell-based
# Sus scrofa [3] = organism: Sus scrofa; test: Ability to induce constriction of pig basilary artery.; type: functional; conditions: read-out: ED50 (the source's name)
# Sus scrofa [4] = organism: Sus scrofa; test: Ability to induce constriction of pig basilary artery; type: functional; conditions: read-out: ED50 (the source's name)
Compound,EC50 (Canis familiaris) [µM],IC50 [1] [µM],IC50 [2] [µM],further results
c1ccc2c(c1)CCC(CNCCCNc1nc3ccccc3[nH]1)O2 (stereo not given),> 1,> 0.1,,
c1ccc2c(c1)CCC(CNCCCNC1=NCCCN1)O2 (stereo not given),0.00453,,0.0126,
CC1(CNCCCNC2=NCCCN2)CCc2ccccc2O1 (stereo not given),> 1,> 1,,
CN1c2ccccc2CCC1CNCCCNC1=NCCCN1 (stereo not given),> 1,> 1,,
c1ccc2c(c1)CCC(CNCCCNc1ccncn1)O2 (stereo not given),0.0787,0.00501,,
c1ccc2c(c1)CC[C@H](CNCCCNC1=NCCCN1)O2,0.00909,0.00501,,EC50 (Sus scrofa [3]; Sus scrofa): 0.0229 µM; EC50 (Sus scrofa [3]): 0.0292 µM
c1cnc(NCCNCC2CCc3ccccc3O2)nc1 (stereo not given),0.06,0.0316,,
COc1ccc2c(c1)CCC(CNCCCNC1=NCCCN1)O2 (stereo not given),> 1,,> 1,
CNS(=O)(=O)Cc1ccc2[nH]cc(CCN(C)C)c2c1,0.16,,,EC50 (Sus scrofa [4]): 0.558 µM
c1ccc2c(c1)CCC(CNCCCNC1=NCCCN1)C2 (stereo not given),0.615,0.126,,
CC(C)/N=C(\N)NNCCCNCC1CCc2ccccc2O1 (stereo not given),0.0048,,0.00794,
CCc1ccc2c(c1)OC(CNCCCNC1=NCCCN1)CC2 (stereo not given),0.00193,,0.00398,
c1ccc2c(c1)CCC(CNCCCNc1nccs1)O2 (stereo not given),0.57,0.00158,,
c1ccc2c(c1)OCC(CNCCCNC1=NCCCN1)O2 (stereo not given),0.0665,0.02,,
c1ccc2c(c1)CCC(CNCCNC1=NCCCN1)O2 (stereo not given),0.0494,,0.0158,
COc1ccc2c(c1)OC(CNCCCNC1=NCCCN1)CC2 (stereo not given),0.0178,,0.0126,
c1cnc(NCCCNCC2CCc3ccccc3O2)nc1 (stereo not given),> 0.1,0.002,,

Compound,EC50 (Canis familiaris) [µM],IC50 [1] [µM],IC50 [2] [µM],further results
CC(C)/N=C(\NC#N)NCCCNCC1CCc2ccccc2O1 (stereo not given),0.115,0.0158,,
c1ccc2c(c1)CCC(CNCCCNc1cnccn1)O2 (stereo not given),0.0155,0.00398,,
c1ccc2c(c1)CC(CNCCCNC1=NCCCN1)O2 (stereo not given),> 1,0.0501,,
c1ccc2c(c1)CCC(CNCCCCNC1=NCCCN1)O2 (stereo not given),0.011,,0.00794,
COc1cccc2c1OC(CNCCCNC1=NCCCN1)CC2 (stereo not given),0.00209,,0.00501,
c1ccc2c(c1)CC[C@@H](CNCCCNC1=NCCCN1)O2,0.0515,0.0501,,
c1ccc2c(c1)CCC(CNCCCCCNC1=NCCCN1)O2 (stereo not given),0.0152,,0.00501,
c1ccc2c(c1)NCC(CNCCCNC1=NCCCN1)O2 (stereo not given),> 1,> 1,,
c1ccc2c(c1)CCC(CNCCCNC1=NCCN1)O2 (stereo not given),0.0315,0.0126,,
c1ccc2c(c1)CCC(CNCCCNC1=NCCCC1)O2 (stereo not given),0.017,0.00631,,
c1ccc(NCCCNCC2CCc3ccccc3O2)nc1 (stereo not given),0.38,0.00126,,
c1ccc2c(c1)CCCC(CNCCCNC1=NCCCN1)O2 (stereo not given),> 1,> 1,,
O=C1CCCN=C(NCCCNCC2CCc3ccccc3O2)N1 (stereo not given),> 1,0.002,,
COc1cccc2c1CCC(CNCCCNC1=NCCCN1)O2 (stereo not given),> 1,,> 1,
Clc1ccc(NCCCNCC2CCc3ccccc3O2)nn1 (stereo not given),> 0.1,0.000398,,
Fc1ccc2c(c1)CCC(CNCCCNC1=NCCCN1)O2 (stereo not given),0.0197,,0.0251,
c1ccc2c(c1)CC(CNCCCNC1=NCCCN1)CO2 (stereo not given),> 1,> 1,,
